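Dose response: 5 concentrations. Exposure: 48 h. Format: 96-well plates. Endpoint: linear interpolation; highest concentration if not reached. Here, GI50 denotes the concentration required for 50% inhibition of growth.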 The source made the active and inactive calls. Cut-off read from the data, not from the text of the source: active = GI50 up to about 1.1 µM and inactive = higher.
Columns and labels:
Assay in all cases: inhibition of tumour cell growth, NCI panel, 48 h
DMS-273 = tested on: DMS-273
HOP-92 = tested on: HOP-92
IGROV-1 = tested on: IGROV-1
NCI-H460 = tested on: NCI-H460
SN12C = tested on: SN12C
RPMI-8226 = tested on: RPMI-8226
SF-268 = tested on: SF-268
SNB-19 = tested on: SNB-19
LXFL 529 = tested on: LXFL 529
NCI-H226 = tested on: NCI-H226
MOLT-4 = tested on: MOLT-4
A498 = tested on: A498
CCRF-CEM = tested on: CCRF-CEM
SK-MEL-5 = tested on: SK-MEL-5
TK-10 = tested on: TK-10
K562 = tested on: K562
M19-MEL = tested on: M19-MEL
UO-31 = tested on: UO-31
Malme-3M = tested on: Malme-3M
SK-MEL-28 = tested on: SK-MEL-28
SW-620 = tested on: SW-620
HCT-116 = tested on: HCT-116
NCI-H23 = tested on: NCI-H23
SNB-75 = tested on: SNB-75
KM-20L2 = tested on: KM-20L2
SF-295 = tested on: SF-295
COLO 205 = tested on: COLO 205
DMS-114 = tested on: DMS-114
UACC-257 = tested on: UACC-257
ACHN = tested on: ACHN
HCC 2998 = tested on: HCC 2998
HOP-18 = tested on: HOP-18
DLD-1 = tested on: DLD-1
SR = tested on: SR
M14 = tested on: M14
HT-29 = tested on: HT-29
KM12 = tested on: KM12
OVCAR-3 = tested on: OVCAR-3
SNB-78 = tested on: SNB-78
SF-539 = tested on: SF-539
786-0 = tested on: 786-0
LOX IMVI = tested on: LOX IMVI
EKVX = tested on: EKVX
CAKI-1 = tested on: CAKI-1
OVCAR-5 = tested on: OVCAR-5
HL-60 = tested on: HL-60
OVCAR-4 = tested on: OVCAR-4
OVCAR-8 = tested on: OVCAR-8
UACC-62 = tested on: UACC-62
A549 = tested on: A549
HCT-15 = tested on: HCT-15
RXF 393 = tested on: RXF 393
HOP-62 = tested on: HOP-62
SK-MEL-2 = tested on: SK-MEL-2
SK-OV-3 = tested on: SK-OV-3
NCI-H522 = tested on: NCI-H522
U-251 = tested on: U-251

How did the GI50 (DMS-273) turn out when COc1cc2c(cc1O)[C@@]1(Cc3ccc(OC)c(OC)c3)CCC(=O)N1CC2 was run?
Its GI50 is > 100 µM (inactive).

What about the GI50 (HOP-92) of the same compound?
Its GI50 is 39.8 µM (inactive).

What about the GI50 (IGROV-1) of the same compound?
Its GI50 is > 100 µM (inactive).

What about the GI50 (NCI-H460) of the same compound?
The GI50 was > 100 µM (inactive).

What about the GI50 (SN12C) of the same compound?
Its GI50 is > 100 µM (inactive).

And the GI50 (RPMI-8226)?
The GI50 was > 100 µM (inactive).

And the GI50 (SF-268)?
Its GI50 is > 100 µM (inactive).

What about the GI50 (SNB-19) of the same compound?
The GI50 was > 100 µM (inactive).

And the GI50 (LXFL 529)?
Its GI50 is > 100 µM (inactive).

What about the GI50 (NCI-H226) of the same compound?
Its GI50 is > 100 µM (inactive).

And the GI50 (MOLT-4)?
Its GI50 is 52 µM (inactive).

What about the GI50 (A498) of the same compound?
The GI50 was > 100 µM (inactive).

And the GI50 (CCRF-CEM)?
The GI50 was > 100 µM (inactive).

And the GI50 (SK-MEL-5)?
Its GI50 is > 100 µM (inactive).

What about the GI50 (TK-10) of the same compound?
The GI50 was > 100 µM (inactive).

And the GI50 (K562)?
The GI50 was > 100 µM (inactive).

What about the GI50 (M19-MEL) of the same compound?
The GI50 was > 100 µM (inactive).

And the GI50 (UO-31)?
Its GI50 is 63.2 µM (inactive).

What about the GI50 (Malme-3M) of the same compound?
The GI50 was 68.4 µM (inactive).

What about the GI50 (SK-MEL-28) of the same compound?
The GI50 was > 100 µM (inactive).

And the GI50 (SW-620)?
Its GI50 is > 10 µM (inactive).

What about the GI50 (HCT-116) of the same compound?
Its GI50 is > 100 µM (inactive).

What about the GI50 (NCI-H23) of the same compound?
Its GI50 is > 100 µM (inactive).

And the GI50 (SNB-75)?
The GI50 was > 100 µM (inactive).

And the GI50 (KM-20L2)?
The GI50 was > 100 µM (inactive).

What about the GI50 (SF-295) of the same compound?
Its GI50 is > 100 µM (inactive).

What about the GI50 (COLO 205) of the same compound?
Its GI50 is > 100 µM (inactive).

What about the GI50 (DMS-114) of the same compound?
The GI50 was > 100 µM (inactive).

What about the GI50 (UACC-257) of the same compound?
Its GI50 is > 100 µM (inactive).

And the GI50 (ACHN)?
Its GI50 is > 100 µM (inactive).

What about the GI50 (HCC 2998) of the same compound?
Its GI50 is > 100 µM (inactive).

What about the GI50 (HOP-18) of the same compound?
The GI50 was 31.3 µM (inactive).

And the GI50 (DLD-1)?
Its GI50 is > 100 µM (inactive).

What about the GI50 (SR) of the same compound?
The GI50 was 61.8 µM (inactive).

What about the GI50 (M14) of the same compound?
Its GI50 is > 100 µM (inactive).

What about the GI50 (HT-29) of the same compound?
Its GI50 is > 100 µM (inactive).

And the GI50 (KM12)?
The GI50 was > 100 µM (inactive).

And the GI50 (OVCAR-3)?
The GI50 was > 100 µM (inactive).

And the GI50 (SNB-78)?
The GI50 was > 100 µM (inactive).

And the GI50 (SF-539)?
The GI50 was > 100 µM (inactive).

What about the GI50 (786-0) of the same compound?
The GI50 was > 100 µM (inactive).

What about the GI50 (LOX IMVI) of the same compound?
The GI50 was > 100 µM (inactive).

What about the GI50 (EKVX) of the same compound?
The GI50 was > 100 µM (inactive).

What about the GI50 (CAKI-1) of the same compound?
The GI50 was > 100 µM (inactive).

What about the GI50 (OVCAR-5) of the same compound?
Its GI50 is > 100 µM (inactive).

What about the GI50 (HL-60) of the same compound?
The GI50 was > 100 µM (inactive).

What about the GI50 (OVCAR-4) of the same compound?
The GI50 was > 100 µM (inactive).

What about the GI50 (OVCAR-8) of the same compound?
The GI50 was > 100 µM (inactive).

What about the GI50 (UACC-62) of the same compound?
Its GI50 is > 100 µM (inactive).

What about the GI50 (A549) of the same compound?
The GI50 was > 100 µM (inactive).

What about the GI50 (HCT-15) of the same compound?
Its GI50 is > 100 µM.

And the GI50 (RXF 393)?
The GI50 was > 100 µM (inactive).

What about the GI50 (HOP-62) of the same compound?
The GI50 was > 100 µM (inactive).

How did the GI50 (DMS-273) turn out when CC(=O)OC(CCC1(C)OC1COc1ccc(CCNC(=O)c2ccccc2)cc1)C(C)(C)OC(C)=O (stereo unspecified) was run?
The GI50 was 11 µM (inactive).

What about the GI50 (HOP-92) of the same compound?
The GI50 was 74.6 µM (inactive).

What about the GI50 (IGROV-1) of the same compound?
The GI50 was 39.5 µM (inactive).

And the GI50 (SK-MEL-2)?
Its GI50 is 17.3 µM (inactive).

What about the GI50 (NCI-H460) of the same compound?
The GI50 was 13.1 µM (inactive).

And the GI50 (SN12C)?
Its GI50 is > 100 µM (inactive).

What about the GI50 (RPMI-8226) of the same compound?
Its GI50 is 18.6 µM (inactive).

What about the GI50 (SF-268) of the same compound?
Its GI50 is 74.8 µM (inactive).

What about the GI50 (LXFL 529) of the same compound?
Its GI50 is 10.3 µM (inactive).

What about the GI50 (NCI-H226) of the same compound?
Its GI50 is > 100 µM (inactive).

And the GI50 (MOLT-4)?
The GI50 was 4.19 µM (inactive).

What about the GI50 (CCRF-CEM) of the same compound?
The GI50 was 7.18 µM (inactive).

And the GI50 (SK-MEL-5)?
The GI50 was 1.1 µM (active).

And the GI50 (TK-10)?
Its GI50 is 49.3 µM (inactive).

What about the GI50 (K562) of the same compound?
The GI50 was 0.752 µM (active).

And the GI50 (M19-MEL)?
Its GI50 is 18.4 µM (inactive).

What about the GI50 (SK-OV-3) of the same compound?
Its GI50 is > 100 µM (inactive).

And the GI50 (UO-31)?
Its GI50 is 29.4 µM (inactive).

What about the GI50 (Malme-3M) of the same compound?
Its GI50 is 15.3 µM (inactive).

What about the GI50 (SK-MEL-28) of the same compound?
The GI50 was 22 µM (inactive).

What about the GI50 (SW-620) of the same compound?
Its GI50 is > 100 µM (inactive).

What about the GI50 (HCT-116) of the same compound?
Its GI50 is 0.794 µM (active).

And the GI50 (NCI-H23)?
The GI50 was 0.302 µM (active).

And the GI50 (SNB-75)?
The GI50 was 32.6 µM (inactive).

And the GI50 (KM-20L2)?
Its GI50 is 30.1 µM (inactive).

What about the GI50 (SF-295) of the same compound?
The GI50 was 11.4 µM (inactive).

What about the GI50 (COLO 205) of the same compound?
The GI50 was 19.5 µM (inactive).

And the GI50 (DMS-114)?
Its GI50 is 0.325 µM (active).

What about the GI50 (UACC-257) of the same compound?
The GI50 was 2.13 µM (inactive).

What about the GI50 (ACHN) of the same compound?
Its GI50 is 5 µM (inactive).

What about the GI50 (HOP-18) of the same compound?
The GI50 was > 100 µM (inactive).

What about the GI50 (DLD-1) of the same compound?
The GI50 was 45 µM (inactive).

And the GI50 (SR)?
Its GI50 is 0.493 µM (active).

What about the GI50 (M14) of the same compound?
The GI50 was 15.1 µM (inactive).

What about the GI50 (HT-29) of the same compound?
The GI50 was 17.4 µM (inactive).

And the GI50 (KM12)?
Its GI50 is 15.6 µM (inactive).

And the GI50 (OVCAR-3)?
The GI50 was 10.3 µM (inactive).

What about the GI50 (SNB-78) of the same compound?
The GI50 was 36.2 µM (inactive).

What about the GI50 (NCI-H522) of the same compound?
Its GI50 is 22.9 µM (inactive).

What about the GI50 (U-251) of the same compound?
The GI50 was 37.3 µM (inactive).

And the GI50 (SF-539)?
The GI50 was > 100 µM (inactive).

And the GI50 (786-0)?
Its GI50 is > 100 µM (inactive).

What about the GI50 (LOX IMVI) of the same compound?
The GI50 was 2.18 µM (inactive).

What about the GI50 (CAKI-1) of the same compound?
Its GI50 is 19 µM (inactive).

What about the GI50 (OVCAR-5) of the same compound?
Its GI50 is > 100 µM (inactive).

What about the GI50 (HL-60) of the same compound?
The GI50 was 25.7 µM (inactive).

What about the GI50 (OVCAR-4) of the same compound?
Its GI50 is 19.7 µM (inactive).

What about the GI50 (OVCAR-8) of the same compound?
Its GI50 is 15.7 µM (inactive).

And the GI50 (UACC-62)?
The GI50 was 14.3 µM (inactive).

And the GI50 (A549)?
Its GI50 is 13.1 µM (inactive).

And the GI50 (HCT-15)?
Its GI50 is 13.9 µM.

And the GI50 (RXF 393)?
Its GI50 is 16.2 µM (inactive).

And the GI50 (HOP-62)?
The GI50 was 15.5 µM (inactive).

From ChEMBL document CHEMBL1201862, “PubChem BioAssay data set” (2004)
